Values joined by “and” are separate entries in the source; they are usually repeats but may differ in a detail not shown here. Equal values may be shown once. “Also recorded” adds a separate entry of the source.
Columns and labels:
NanoLuc-CRBN fusion = target: T1, NanoLuc-CRBN fusion (Homo sapiens, UniProt Q96SW2); experiment: NanoBRET CRBN in-cell target engagement assay; type: cell-based; conditions: for NanoBRET(%): Figure 3b; for NanoBRET(%) / IC50: triplicates; for IC50: HEK-293 cells, CRBN tracer 0.5 µM, read-out: CRBN target engagement IC50,TE; for K′P,D (relative intracellular accumulation coefficient): Kd (CRBN)/IC50,TE (CRBN); for intracellular accumulation of RC-1 relative to the compound: from K′P,D values, CRBN (Table 2); for CRBN target engagement IC50 relative to that of RC-1: ratio compound/RC-1
T1 construct: host or cells: HEK 293T/17
T1 sequence (Q96SW2 whole entry, the tested form may be a part): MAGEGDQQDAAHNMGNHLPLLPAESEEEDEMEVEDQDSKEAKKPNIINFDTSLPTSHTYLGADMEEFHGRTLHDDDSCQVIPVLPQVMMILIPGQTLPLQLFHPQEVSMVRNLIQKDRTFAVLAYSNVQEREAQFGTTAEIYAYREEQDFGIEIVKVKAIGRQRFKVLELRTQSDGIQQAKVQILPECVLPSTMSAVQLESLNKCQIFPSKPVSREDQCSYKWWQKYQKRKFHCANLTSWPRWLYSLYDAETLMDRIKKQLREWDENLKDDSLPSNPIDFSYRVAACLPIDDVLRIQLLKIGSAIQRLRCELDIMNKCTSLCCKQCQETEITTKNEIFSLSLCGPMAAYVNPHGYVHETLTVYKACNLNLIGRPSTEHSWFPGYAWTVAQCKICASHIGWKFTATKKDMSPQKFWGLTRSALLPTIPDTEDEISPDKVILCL
T1 sequence (Q16531 whole entry partner, the tested form may be a part): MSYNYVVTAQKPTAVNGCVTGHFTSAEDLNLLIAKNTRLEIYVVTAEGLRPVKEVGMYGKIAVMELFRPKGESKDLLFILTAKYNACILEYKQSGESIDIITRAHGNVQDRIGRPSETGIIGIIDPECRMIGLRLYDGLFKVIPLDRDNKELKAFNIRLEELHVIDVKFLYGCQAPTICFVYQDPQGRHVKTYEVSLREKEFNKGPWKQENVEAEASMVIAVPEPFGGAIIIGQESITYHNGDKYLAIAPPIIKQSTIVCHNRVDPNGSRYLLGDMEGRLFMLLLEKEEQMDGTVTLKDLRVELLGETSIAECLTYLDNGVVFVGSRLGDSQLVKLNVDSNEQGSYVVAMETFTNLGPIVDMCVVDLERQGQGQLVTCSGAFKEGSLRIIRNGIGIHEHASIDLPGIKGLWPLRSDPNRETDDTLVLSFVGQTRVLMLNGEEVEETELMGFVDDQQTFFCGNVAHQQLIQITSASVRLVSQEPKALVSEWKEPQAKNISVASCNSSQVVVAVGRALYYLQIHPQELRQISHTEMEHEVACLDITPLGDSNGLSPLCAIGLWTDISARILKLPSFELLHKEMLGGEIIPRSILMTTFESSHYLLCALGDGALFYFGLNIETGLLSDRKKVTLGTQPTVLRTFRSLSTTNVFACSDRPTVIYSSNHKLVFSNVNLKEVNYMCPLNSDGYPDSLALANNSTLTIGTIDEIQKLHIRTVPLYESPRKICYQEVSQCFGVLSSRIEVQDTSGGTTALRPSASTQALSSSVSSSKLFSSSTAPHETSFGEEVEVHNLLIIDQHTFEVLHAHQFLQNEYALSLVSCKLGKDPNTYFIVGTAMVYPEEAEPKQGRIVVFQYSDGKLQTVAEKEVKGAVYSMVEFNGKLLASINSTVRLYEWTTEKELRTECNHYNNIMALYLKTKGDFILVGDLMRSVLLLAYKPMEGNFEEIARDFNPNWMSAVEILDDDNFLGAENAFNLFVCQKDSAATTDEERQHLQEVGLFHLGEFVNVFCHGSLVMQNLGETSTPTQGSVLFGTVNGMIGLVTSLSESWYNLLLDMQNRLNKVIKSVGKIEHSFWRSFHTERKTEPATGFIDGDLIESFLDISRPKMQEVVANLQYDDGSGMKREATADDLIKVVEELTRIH
Description: The target engagement assay for BTK or CRBN was from Promega (BTK kit, Cat. No. N2500; CRBN kit, Cat. No. CS1810C136) and was performed according to the manufacture’s instruction with some modifications. […] After 2 h incubation, the 3X Nano-Glo® Substrate with NanoLuc® extracellular inhibitor were added to cells and developed for 3 min at room temperature. BRET signals were collected using a BioTek SYNERGY H1 microplate reader equipped with a 450/80-nm BP filter for donor emission and a 610-nm LP filter for acceptor emission. BRET Ratio was calculated with the equation: [(Acceptor sample/Donor sample)–(Acceptor no tracer control/Donor no tracer control)] × 1000. The IC50 of the compound against its BTK or CRBN tracer was calculated using GraphPad Prism software.

MOLM-14 cells = experiment: Quantitative multiplexed (TMT) proteomics of compound-treated cells; type: cell-based, Homo sapiens; conditions: 200 nM, 24 h
Description: For proteomic study of the cellular protein profile following BTK degradation, MOLM-14 cells were treated in duplicate with 200 nM of RC-1, RNC-1, IRC-1, or RC-1-Me for 24 h, and then the cells were collected and processed for proteomics analysis (Sanford Burnham Prebys Medical Discovery Institute, La Jolla, California).
For cell lysis and protein digestion, cells were lysed with vigorous shaking (20 Hz for 10 min at room temperature by Retsch MM301 instrument) in 0.5 mL of lysis buffer (8 M urea, 50 mM ammonium bicarbonate (ABC); plus Benzonase 24U/100 ml), and extracted proteins were centrifuged at 14,000 × g for 10 min to remove cellular debris. Supernatant protein concentration was determined using a bicinchoninic acid (BCA) protein assay. Following quantification, the proteins were digested in solution. First, protein disulfide bonds were reduced with 5 mM tris(2-carboxyethyl)phosphine (TCEP) at 30 °C for 60 min, alkylated (carbamidomethylated) with 15 mM iodoacetamide (IAA) in the dark at room temperature for 30 min. Urea was then diluted to 1 M urea using 50 mM ammonium bicarbonate, and proteins were subjected to overnight digestion with mass spec grade Trypsin/Lys-C mix. Following digestion, samples were acidified with formic acid (FA) and subsequently desalted using Waters Sep-Pak C18. Cartridges were sequentially conditioned with 100% acetonitrile (ACN) and 0.1% FA, samples were then loaded, washed with 0.1% FA, and peptides eluted with 60% ACN, 0.1% FA. Finally, the organic solvent was removed in a SpeedVac concentrator prior to LC-MS/MS analysis.
Prior to TMT labeling, sample peptide amount was quantified using a NanoDrop^TM spectrophotometer (ThermoFisher). Samples were labeled according to the table schematic shown below using our TMT protocol. Briefly, a normalized amount of peptides sample was resuspended in 200 mM HEPES pH 8, and then labeled with one of the TMT10-plex reagents for 1 h at room temperature. TMT labels/channels were as follows:
Reactions were quenched with 5% hydroxylamine solution. The 10 samples were then combined, dried down in a SpeedVac system, resuspended in 0.1% FA, and desalted as described above. After desalting, the organic solvent was removed in a SpeedVac concentrator.
Dried samples were reconstituted in 20 mM ammonium formate pH ~10, and fractionated by high pH reverse phase using a Waters Acquity CSH C18 2.1-µm 1 × 150 mm column mounted on an M-Class Ultra Performance Liquid Chromatography (UPLC) system (Waters corp., Milford, MA). […] A total of 36 fractions were collected and pooled in a non-contiguous manner into 18 total fractions: 1 + 19, 2 + 20, 3 + 21, 4 + 22, 5 + 23, 6 + 24, 7 + 25, 8 + 26, 9 + 27, 10 + 28, 11 + 29, 12 + 30, 13 + 31, 14 + 32, 15 + 33, 16 + 34, 17 + 35, and 18 + 36. Pooled fractions were dried to completeness in a SpeedVac concentrator.
Dried fractions were reconstituted with 2% ACN-0.1% FA and analyzed by LC-MS/MS using a nanoACQUITY system (Waters) coupled to an Orbitrap Fusion Lumos mass spectrometer (Thermo Fisher Scientific). […] The mass spectrometer was operated in positive data-dependent acquisition mode. MS1 spectra were measured in the Orbitrap with a resolution of 60,000 (AGC target: 4e5; maximum injection time: 50 ms; mass range: from 350 to 1500 m/z). The instrument was set to run in top speed mode with 3 s cycles for the survey and the MS/MS scans. After a survey scan, tandem MS was performed in the Ion Routing Multipole HCD-Cell on the most abundant precursors by isolating them in the quadrupole (Isolation window: 0.7 m/z; charge state: +2–7; collision energy: 35%). […] The dynamic exclusion was set to 20 s with a 10-ppm mass tolerance around the precursor and its isotopes.
For data analysis, all mass spectra were analyzed with MaxQuant software version 1.5.5.1. MS/MS spectra were searched against the Homo sapiens Uniprot protein sequence database (version January 2018) and GPM cRAP sequences (commonly known protein contaminants). […]

Row | SMILES | NanoBRET(%) (NanoLuc-CRBN fusion; 1.00E-05 M) | NanoBRET(%) (NanoLuc-CRBN fusion; 1.60E-08 M) | NanoBRET(%) (NanoLuc-CRBN fusion; 3.20E-09 M) | NanoBRET(%) (NanoLuc-CRBN fusion; 4.00E-07 M) | NanoBRET(%) (NanoLuc-CRBN fusion; 8.00E-08 M) | IC50 (NanoLuc-CRBN fusion) | K′P,D (relative intracellular accumulation coefficient) (NanoLuc-CRBN fusion) | degradation of IMiD-dependent substrates IKZF1, ZFP91, ZNF692 (MOLM-14 cells) | kinases degraded (proteomics) (MOLM-14 cells) | NanoBRET(%) (NanoLuc-CRBN fusion; 2.00E-06 M) | CRBN engagement (NanoLuc-CRBN fusion; at 400 nM) | intracellular accumulation of RC-1 relative to the compound (NanoLuc-CRBN fusion) | CRBN target engagement IC50 relative to that of RC-1 (NanoLuc-CRBN fusion)
1 | CN(CCCNC(=O)CNc1cccc2c1C(=O)N(C1CCC(=O)NC1=O)C2=O)C(C)(C)C=C(C#N)C(=O)N1CCC[C@@H](n2nc(-c3ccc(Oc4ccccc4)cc3)c3c(N)ncnc32)C1 (stereo partly shown) [RC-1] | 21.6334% and 26.3618% | 89.0253% and 93.1823% and 91.5749% | 81.4353% and 98.6889% | 23.5104% and 43.7578% and 36.9762% | 72.3946% and 83.8988% and 65.1002% | 250 nM | 16.8 | specifically degraded | only two kinases (BTK and CSK) can be degraded; also recorded: only degrades BTK and CSK |  |  |  | 
2 | CN1C(=O)CCC(N2C(=O)c3cccc(NCC(=O)NCCCN(C)C(C)(C)C=C(C#N)C(=O)N4CCCC(n5nc(-c6ccc(Oc7ccccc7)cc6)c6c(N)ncnc65)C4)c3C2=O)C1=O (stereo not shown) [RC-1-Me] |  |  |  |  |  |  |  |  | no degradation is observed |  |  |  | 
3 | CN(CC=CC(=O)N1CCCC(n2nc(-c3ccc(Oc4ccccc4)cc3)c3c(N)ncnc32)C1)CCCNC(=O)CNc1cccc2c1C(=O)N(C1CCC(=O)NC1=O)C2=O (stereo not shown) [IRC-1] | 14.8662% and 22.7538% and 22.1529% | 80.9317% and 101.051% and 94.8942% | 91.4483% and 90.0848% | 56.7638% and 59.2904% | 86.864% and 89.7074% and 93.5853% | 860 nM | 1.7 | specifically degraded | 7 | 31.3092% and 33.6262% and 37.1463% | ~ 40% | 10 fold | 3 fold
4 | CN(CCCNC(=O)CNc1cccc2c1C(=O)N(C1CCC(=O)NC1=O)C2=O)CCCC(=O)N1CCCC(n2nc(-c3ccc(Oc4ccccc4)cc3)c3c(N)ncnc32)C1 (stereo not shown) [RNC-1] |  | 102.085% and 102.001% | 100.05% and 108.808% and 104.469% | 67.9857% and 66.2855% and 79.0983% | 74.8615% and 82.1247% | 1690 nM | 1.1 | specifically degraded | 7 | 49.8083% and 51.4483% and 59.2693% |  | 16 fold | 7 fold

From publication PMC7450057, “Enhancing intracellular accumulation and target engagement of PROTACs with reversible covalent chemistry” (Nature Communications, 2020)
